Measured values as given in patent publication US20150005253A1, “NOVEL COMBINATIONS FOR TREATING ACUTE MYELOID LEUKAEMIA OR CHRONIC MYELOID LEUKAEMIA” (SANOFI, priority 2012, published 2015).
Like-named read-outs stand apart in the source and are kept apart here.

What was measured:
KG1 cells = test: in vivo; type: in vivo; settings: for CR / cures / log cell kill-gross (LCK-g): Compound (A) 20 mg/kg IV days 16-20, alone or combined; for tumor response, oral consolidation: after IV induction
Procedure: (§1) Solutions were kept on ice and administered as a bolus within 1 hour after formulation preparation. The volume of injection was 0.2 mL per mouse.
(§2) Eight-week-old female SCID mice were purchased from Charles River. The Committee of Animal Studies at Sanofi approved the protocol for animal experimentation. This protocol and all laboratory procedures comply with the French Legislation, which implements the European Directives. Animals were received at least one week before the experiment to allow acclimatization. The animals were kept under a natural daylight cycle and given food and water ad libitum.
(§3) When the tumor reached approximately 1000 mg, it was removed from the donor mouse, cut into fragments (2-3 mm diameter), placed in a phosphate buffer saline, and implanted bilaterally with a 12-gauge trocar. Tumor fragments were propagated until stable growth behavior occurred (a stable doubling time), before using in experiments. Distribution was performed using body weight and tumor weight criteria with the “Newlab oncology” software (Newlab).
(§4) When ΔT/ΔC values are negative, the percentage of regression is evaluated. Partial regression (PR) is defined as a decrease ≧50% of tumor volume at treatment initiation. Complete regression (CR) is defined as a decrease in tumor volume below the limit of palpation (T=10 mm^3). At study end, the number of tumor-free survivors (TFS), which correspond to mice without any detectable tumor, was determined. Both drug-related deaths and maximum percent relative mean net body weight loss were also determined. Median times to reach tumor target size were compared using Log-Rank or Kruskal-Wallis multiple comparisons tests. A body weight loss nadir (mean of group)>20% or 10% drug-related deaths were considered to indicate an excessive toxic dosage.
(§5) where T is the median time (in days) required for the treatment group tumors to reach a predetermined size (eg, 1000 mg), and C is the median time tumors to reach the same size (in days) for the vehicle group of each schedule. Tumor-free survivors are excluded from these calculations (cures are tabulated separately). T-C is the tumor growth delay and Td is the tumor doubling time in days. […] LCK-g values can be translated into an activity rating, according to the Southern Research Institute (SRI) criteria: […]

CML-T1 = test: Human chronic leukaemia CML-T1 implanted in SCID mice; type: in vivo; settings: Cytarabine 200 mg/kg IP days 8, 12, 16; COMPOUND (A) 10 mg/kg IP days 8, 9, 11-17, 19; alone or combined
Procedure: Food and water were given ad libitum.
as §5

in vivo = type: in vivo; settings: female, SCID, mouse, in vivo; daily IV
Procedure: as §1, §2, §3, §4, §5

KG1a cells = test: Tumor implantation study in SCID mice bearing KG1a cells; type: in vivo; settings: for ΔT/ΔC: evaluated on day 32; for cures: day 120
Procedure: (§6) For in vitro studies, compound (A) was dissolved at 10 mM in DMSO and diluted in complete RPMI-1640 medium or in phenol red-free complete RPMI-1640 medium in sterile 96-well polystyrene cell culture plates. For in vivo studies, compound (A) was prepared for intravenous (IV) or intraperitoneal (IP) administration by mixing 22% PEG400 with 5% solutol and 73% […]. For oral administration, compound (A), was prepared in a generally regarded as safe (GRAS) formulation composed of 21% labrasol with 5% solutol and 74% HCL 0.001N. Solutions were kept on ice and administered as a bolus within 1 hour after formulation preparation. The volume of injection was 0.2 mL per mouse.
as §2
All tumor cell lines were obtained from DSMZ GmbH. Initially, cell lines were cultured in RPMI 1640 containing 10% FCS and antibiotics, and implanted subcutaneously in SCID mice (10^7 cells/mouse). When the tumor reached approximately 1000 mg, it was removed from the donor mouse, cut into fragments (2-3 mm diameter), placed in a phosphate buffer saline, and implanted bilaterally with a 12-gauge trocar. Tumor fragments were propagated until stable growth behavior occurred (a stable doubling time), before using in experiments. Distribution was performed using body weight and tumor weight criteria with the “Newlab oncology” software (Newlab).
as §4

[1] = tested on: granulomonocytic progenitors (CFU-GM); test: Normal myeloid progenitor cell clonogenic assay (CFU-GM); type: cell-based; settings: Homo sapiens, 336 h, median over normal myeloid progenitor samples, 14 days
Procedure: as §6
(§7) Fresh CD34^+ human bone marrow cells were washed twice in Iscove modified Dulbecco medium (IMDM) containing 10% FCS and resuspended in H4230 medium supplemented with 10% 5637-conditioned medium for CFU-GM growth, in H4435 medium for CFU-M growth, and in H4535 medium for BFU-E growth. H4230, H4435, and H4535 medium were purchased from Stem Cell Technologies. The cells were then plated in 35-mm Petri dishes and incubated in a humidified CO2 incubator (5% CO2, 37° C.) for 14 days. Colonies (>50 cells) were then scored under an inverted microscope.

[2] = tested on: erythroblastic BFU-E progenitors; test: Normal myeloid progenitor cell clonogenic assay (BFU-E); type: cell-based; settings: Homo sapiens, 336 h, median over normal myeloid progenitor samples, 14 days
Procedure: as §6, §7

[3] = tested on: leukemia progenitors (CFU-L) of AML patient samples; test: Myeloid leukemic cell clonogenic assay on AML patient samples (ex vivo); type: cell-based, human; settings: for IC50: Homo sapiens
Procedure: Hematological malignant cell lines were obtained from Deutsche Sammlung von Mikroorganismen and Zellkulturen GmbH (Braunschweig) and cultured in complete RPMI-1640 medium containing 10% fetal bovine serum and antibiotics. Primary AML cells were obtained from patients seen at Toulouse Hospital (Toulouse, France) at the time of diagnosis and after written informed consent. All samples were evaluated for karyotypic abnormalities, immunologic phenotype, FLT3-acquired activating mutations (internal tandem duplications and kinase domain mutations), t (Mizuki M. et al., Blood 2000 96: 3907-3914; Fiebig H. H. et al., Eur. J. Cancer 2004, 40: 802-820) and inv (Bonnet D. et al., Nat Med 1997 3: 730-737) mutations, and c-kit receptor-acquired mutations. Samples were stored in the Hemopathies Inserm Midi-Pyrénées (HIMIP) collection. Mononuclear cells were separated through a Ficoll-Hypaque density gradient.
as §6
The assay is as described by Récher and colleagues (Récher C. et al., Blood 2005; 105:2527-2534) with slight modifications. Briefly, cells were washed twice in PBS and suspended at 1×10^5 cell/mL in H4230 medium (Stem Cell Technologies) supplemented with 10% 5637-conditioned medium and appropriate dilutions of COMPOUND (A). Cells were then plated on 35 mm petri dishes and incubated at 37° C. in 5% CO2, fully humidified atmosphere. After 7 days, colonies (more than 20 cells) and clusters (more than 5 cells) were scored using an inverted microscope.

[4] = Cytarabine 31.5 mg/kg IP days 16-22
[5] = very advanced KG1 tumors (1000 mg), 25 mg/kg IV daily day 22-30

SMILES: Nc1ccn([C@@H]2O[C@H](CO)[C@@H](O)[C@@H]2O)c(=O)n1 [Cytarabine, cytarabine, reference compound]
- CR (KG1 cells; [4]): no
- cures (KG1 cells; [4]): no
- log cell kill-gross (LCK-g) (KG1 cells; [4]): 1.6
- PR (KG1 cells; [4]): no
- LCK-g (CML-T1): 0.9

SMILES: CC(C)(C)NC(=O)Nc1nc2nc(Nc3ccc4nsnc4c3)ncc2cc1-c1c(Cl)cccc1Cl [Compound (A), N-[2-(2,1,3-benzothiadiazol-5-ylamino)-6-(2,6-dichlorophenyl)pyrido[2,3-d]pyrimidin-7-yl]-N′-(1,1-dimethylethyl)-urea]
- MTD (in vivo): 25 mg/kg
- activity rating (KG1 cells; 10 mg/kg IV): active
- animals with CR (KG1 cells; 10 mg/kg/day IV): one of six
- ΔT/ΔC (KG1 cells; 10 mg/kg/day IV, day 19 to day 38): 17.45%
- activity rating (KG1 cells; 25 mg/kg IV): highly active (ΔT/ΔC<0: highly active)
- animals with complete regressions (CR) (KG1 cells; 25 mg/kg/day IV (MTD)): 6 out of 6
- animals with cures (KG1 cells; 25 mg/kg/day IV (MTD)): 6 out of 6
- DT/DC (KG1 cells; 25 mg/kg/day IV, day 19 to day 38): < −14.27%
- body weight loss (KG1 cells; 25 mg/kg/day IV, day 29, reversible): 18.2%
- CR (KG1 cells; [4]): 83%
- cures (KG1 cells; [4]): no
- log cell kill-gross (LCK-g) (KG1 cells; [4]): 2.4
- tumor response, oral consolidation (KG1 cells; oral 1x50 mg/kg daily day 31-95): tumors re-grew slowly
- tumor response, oral consolidation (KG1 cells; oral 2x40 mg/kg daily day 31-95): complete disappearance of tumors
- animals cured (KG1 cells; oral 2x40 mg/kg/day): None
- maximum body weight loss (KG1 cells; oral 2x40 mg/kg/day, day 28, rapidly reversible): 14.4%
- efficacy (in words) (KG1 cells; oral once a day 19.8 mg/kg): no efficacy
- ΔT/ΔC (KG1 cells; oral once a day 19.8 mg/kg): 41.99%
- DT/DC (KG1 cells; oral once a day 31.5 mg/kg): 19.72%
- DT/DC (KG1 cells; oral once a day 50 mg/kg): 7.61%
- ΔT/ΔC (KG1 cells; oral, two daily dosages of 40 mg/kg/day, day 15 to day 40): −3.80%
- activity rating, IV induction phase (KG1 cells; [5]): highly active (ΔT/ΔC<0: highly active)
- tumor response, IV induction phase (KG1 cells; [5]): strong tumor regressions
- activity rating (KG1a cells; 10 mg/kg): highly active (ΔT/ΔC<0: highly active)
- animals with complete regression (KG1a cells; 10 mg/kg): 10/10
- ΔT/ΔC (KG1a cells; 10 mg/kg daily IV day 5-13 then IP to day 31): −4.99%
- cures (KG1a cells; 10 mg/kg): 80%
- activity rating (KG1a cells; 17 mg/kg): highly active (ΔT/ΔC<0: highly active)
- animals with complete regression (KG1a cells; 17 mg/kg): 10/10
- ΔT/ΔC (KG1a cells; 17 mg/kg daily IV day 5-13 then IP to day 31): −4.70%
- body weight loss at nadir (KG1a cells; 17 mg/kg daily IV day 5-13 then IP, day 22, reversible): 16.2%
- cures (KG1a cells; 17 mg/kg): 60%
- IC50 [1]: 788 nM
- LCK-g (CML-T1): 0.1
- IC50 [2]: 219 nM
- IC50 ([3]; range over AML patient samples, read-out: IC50 values ranging (all tested samples)): ≥ 3.8 nM
- IC50 ([3]; resistant, N=4 samples, read-out: IC50 maximum, resistant samples): > 1000 nM
- IC50 ([3]; resistant, N=4 samples, read-out: IC50 minimum, resistant samples): 888 nM
- IC50 ([3]; sensitive, N=26, read-out: IC50 maximum, sensitive samples): 532 nM
- IC50 ([3]; sensitive, N=26, read-out: IC50 median, sensitive samples): 172 nM
- IC50 ([3]; sensitive, N=26, read-out: IC50 minimum, sensitive samples): 3.8 nM
- sensitive samples as share of the tested samples ([3]; classified against activity on normal hematopoietic progenitors): 86.7%
- AML cell samples displaying resistance in the high-risk cytogenetic group ([3]; high-risk group: patients 4, 11, 14, 19, 21, 23, 25, 27, 28, 29): 3
- sensitivity of patient sample 11 ([3]; patient sample 11): highly sensitive
